Experimental data: US9403801B2 (Calitor Sciences, LLC, priority 2014, dated 2016)

How the values were obtained:
[1] = Compound stability in rat liver microsomes; format: in vitro ADME; details: for half-life at 5 μM: compound 5 μM, NADPH 1.0 mM, 37° C.; for CLint scaled at 5 μM: in vivo CLint extrapolated
Description: (§1) Human or rat liver microsomes incubations were conducted in duplicate in polypropylene tubes. The typical incubation mixtures consisted of human or rat liver microsomes (0.5 mg protein/mL), compounds of interest (5 μM) and NADPH (1.0 mM) in a total volume of 200 μL potassium phosphate buffer (PBS, 100 mM, pH 7.4). Compounds were dissolved in DMSO and diluted with PBS such that the final concentration of DMSO was 0.05%. The enzymatic reactions were commenced with the addition of protein after a 3-min preincubation and incubated in a water bath open to the air at 37° C. Reactions were terminated at various time points (0, 5, 10, 15, 30, 60 min) by adding equal volume of ice-cold acetonitrile. The samples were stored at −80° C. until LC/MS/MS assays.
(§2) The concentrations of compounds in the incubation mixtures of human or rat liver microsomes were determined by a LC/MS/MS method. The ranges of the linearity in the concentration range were determined for each tested compounds.
(§3) A parallel incubation was performed using denatured microsomes as the negative control, and reactions were terminated at various time points (0, 15, 60 min) after incubation at 37° C.
(§4) Dextromethorphan (70 μM) was selected as the positive control, and reactions were terminated at various time points (0, 5, 10, 15, 30, 60 min) after incubation at 37° C. Both positive and negative control samples were included in each assay to ensure the integrity of the microsomal incubation system.
(§5) The concentrations of compounds in human or rat liver microsome incubations were plotted as a percentage of the relevant zero time point control for each reaction. The in vivo CLint were extrapolated (ref.: Naritomi, Y.; Terashita, S.; Kimura, S.; Suzuki, A.; Kagayama, A.; and Sugiyama, Y.; Prediction of human hepatic clearance from in vivo animal experiments and in vitro metabolic studies with liver microsomes from animals and humans. Drug Metab. Dispos., 2001, 29: 1316-1324).

JAK1 (h) = JAK1 (h) (Homo sapiens (Human), UniProt P23458); assay: JAK1 kinase assay (33P-ATP filter binding, Millipore); format: biochemical
Sequence of JAK1 (h) (P23458 whole entry): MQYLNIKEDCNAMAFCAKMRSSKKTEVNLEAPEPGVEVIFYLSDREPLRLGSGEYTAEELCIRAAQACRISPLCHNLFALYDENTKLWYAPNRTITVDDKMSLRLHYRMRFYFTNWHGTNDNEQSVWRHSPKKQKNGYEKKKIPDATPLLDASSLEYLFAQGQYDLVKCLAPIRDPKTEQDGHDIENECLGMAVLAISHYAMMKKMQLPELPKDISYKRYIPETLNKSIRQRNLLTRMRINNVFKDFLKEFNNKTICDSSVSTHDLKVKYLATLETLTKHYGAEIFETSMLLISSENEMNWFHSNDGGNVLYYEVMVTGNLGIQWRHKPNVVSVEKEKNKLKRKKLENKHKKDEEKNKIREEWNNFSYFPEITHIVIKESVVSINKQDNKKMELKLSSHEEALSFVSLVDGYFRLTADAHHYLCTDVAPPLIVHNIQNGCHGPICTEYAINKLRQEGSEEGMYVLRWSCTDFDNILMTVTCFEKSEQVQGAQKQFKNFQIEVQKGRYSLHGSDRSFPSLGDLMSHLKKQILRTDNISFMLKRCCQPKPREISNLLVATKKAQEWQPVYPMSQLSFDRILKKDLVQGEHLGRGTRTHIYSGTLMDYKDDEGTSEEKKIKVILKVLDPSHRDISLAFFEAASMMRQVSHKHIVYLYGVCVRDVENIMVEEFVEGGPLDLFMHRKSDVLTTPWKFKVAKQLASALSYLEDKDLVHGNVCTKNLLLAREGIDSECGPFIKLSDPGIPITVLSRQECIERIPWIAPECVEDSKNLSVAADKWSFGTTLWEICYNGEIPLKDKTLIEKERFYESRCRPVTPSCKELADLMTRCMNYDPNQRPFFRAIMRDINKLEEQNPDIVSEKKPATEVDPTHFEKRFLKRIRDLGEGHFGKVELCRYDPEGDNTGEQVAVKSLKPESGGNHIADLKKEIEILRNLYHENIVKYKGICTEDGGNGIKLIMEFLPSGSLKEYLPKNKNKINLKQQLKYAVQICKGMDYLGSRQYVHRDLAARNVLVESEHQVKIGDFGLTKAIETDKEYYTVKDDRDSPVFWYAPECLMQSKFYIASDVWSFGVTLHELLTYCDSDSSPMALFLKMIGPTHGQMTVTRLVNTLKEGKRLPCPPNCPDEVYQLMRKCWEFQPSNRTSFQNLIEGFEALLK
Description: Kinase assays can be performed by measurement of incorporation of γ-^33P ATP into immobilized myelin basic protein (MBP). High binding white 384 well plates (Greiner) are coated with MBP (Sigma #M−1891) by incubation of 60 μL/well of 20 μg/mL MBP in Tris-buffered saline (TBS; 50 mM Tris pH 8.0, 138 mM NaCl, 2.7 mM KCl) for 24 h at 4° C. Plates are washed 3× with 100 μL TBS. Kinase reactions are carried out in a total volume of 34 μL in kinase buffer (5 mM Hepes pH 7.6, 15 mM NaCl, 0.01% bovine gamma globulin (Sigma #I-5506), 10 mM MgCl2, 1 mM DTT, 0.02% TritonX-100). Compound dilutions are performed in DMSO and added to assay wells to a final DMSO concentration of 1%. Each data point is measured in duplicate, and at least two duplicate assays are performed for each individual compound determination. Enzyme is added to final concentrations of 10 nM or 20 nM, for example. A mixture of unlabeled ATP and γ-^33P ATP is added to start the reaction (2×10^6 cpm of γ-^33P ATP per well (3000 Ci/mmole) and 10 μM unlabeled ATP, typically. The reactions are carried out for 1 h at room temperature with shaking. Plates are washed 7× with TBS, followed by the addition of 50 μL/well scintillation fluid (Wallac). Plates are read using a Wallac Trilux counter. This is only one format of such assays; various other formats are possible, as known to one skilled in the art.
The above assay procedure can be used to determine the IC50 for inhibition and/or the inhibition constant, Ki. The IC50 is defined as the concentration of compound required to reduce the enzyme activity by 50% under the condition of the assay. The IC50 value is estimated by preparing a 10 point curve using a 1/2 log dilution series (for example, a typical curve may be prepared using the following compound concentrations: 3 μM, 1 μM, 0.3 μM, 0.1 μM, 0.03 μM, 0.01 μM, 0.003 μM, 0.001 μM, 0.0003 μM and 0 μM).
The kinase assays described herein were performed at Millipore UK Ltd, Dundee Technology Park, Dundee DD2 1SW, UK.

[2] = Pharmacokinetics after intravenous and oral administration in rats; format: in vivo; details: for Clearance (CL) after iv dosing / AUC(0-t) / half-life / Vd: dose 1 mg/kg (Ex. 27: 0.72 mg/kg), iv dosing; for F: oral bioavailability; for AUC(0-t) / half-life / Vd: rat, plasma; for Vd: read-out: Vss
Description: The LC/MS/MS system used in the analysis consists of an Agilent 1200 Series vacuum degasser, binary pump, well-plate autosampler, thermostatted column compartment, the Agilent G6430 Triple Quadrupole Mass Spectrometer with an electrosprayionization (ESI) source. Quantitative analysis was carried out using MRM mode. The parameters for MRM transitions are in the Table A.
An Agilent XDB-C18, 2.1×30 mm, 3.5 μM column was used for the analysis. 5 μL of the samples were injected. Analysis condition: The mobile phase was 0.1% formic acid in water (A) and 0.1% formic acid in methanol (B). The flow rate was 0.4 mL/min. And the gradient of Mobile phase was in the Table B.
Alternatively, an Agilent 6330 series LC/MS/MS spectrometer equipped with G1312A binary pumps, a G1367A autosampler and a G1314C UV detector were used in the analysis. An ESI source was used on the LC/MS/MS spectrometer. The analysis was done in positive ion mode as appropriate and the MRM transition for each analyte was optimized using standard solution. A Capcell MP-C18 100×4.6 mm I.D., […] column (Phenomenex, Torrance, Calif., USA) was used during the analysis. The mobile phase was 5 mM ammonia acetate, 0.1% MeOH in water (A): 5 mM ammonia acetate, 0.1% MeOH in acetonitrile (B) (70:30, v/v). The flow rate was 0.6 mL/min. Column was maintained at ambient temperature. 20 μL of the samples were injected.
The compounds disclosed herein are assessed in pharmacokinetic studies in mice, rats, dogs or monkeys. The compounds are administered as a water solution, 2% HPMC+1% TWEEN®80 in water solution, 5% DMSO+5% solution in saline, 4% MC suspension or capsule. For the intravenous administration, the animals are generally given at 1 or 2 mg/kg dose. For the oral (p.o.) dosing, mice and rats are generally given 5 or 10 mg/kg dose, and dogs and monkeys are generally given 10 mg/kg dose. The blood samples (0.3 mL) are drawn at 0.25, 0.5, 1.0, 2.0, 3.0, 4.0, 6.0, 8.0, 12 and 24 h time points or 0.083, 0.25, 0.5, 1.0, 2.0, 4.0, 6.0, 8.0 and 24 h time points and centrifuged at 3,000 or 4000 rpm for 2 to 10 min. The plasma solutions are collected, and stored at −20° C. or −70° C. until analyzed by LC/MS/MS as described above.

[3] = Compound stability in human liver microsomes; format: in vitro ADME; details: for half-life at 5 μM: compound 5 μM, NADPH 1.0 mM, 37° C.; for CLint scaled at 5 μM: in vivo CLint extrapolated
Description: as §1, §2, §3, §4, §5

[4] = pH 7.4, Rat liver microsomes 0.5 mg protein/mL
[5] = pH 7.4, Human liver microsomes 0.5 mg protein/mL
[6] = rat, liver microsomes, pH 7.4, Rat liver microsomes 0.5 mg protein/mL
[7] = rat, liver microsomes, pH 7.4, Rat liver microsomes
[8] = human, liver microsomes, pH 7.4, Human liver microsomes 0.5 mg protein/mL
[9] = human, liver microsomes, pH 7.4, Human liver microsomes

| half-life at 5 μM [1, 4] | CLint scaled at 5 μM ([1]; pH 7.4, Rat liver microsomes) | IC50 (JAK1 (h)) | Clearance (CL) after iv dosing [2] | F [2] | AUC(0-t) [2] | half-life [2] | Vd [2] | half-life at 5 μM [3, 5] | CLint scaled at 5 μM ([3]; pH 7.4, Human liver microsomes) | Structure (SMILES) | half-life at 5 μM [1, 6] | CLint scaled at 5 μM [1, 7] | half-life at 5 μM [3, 8] | CLint scaled at 5 μM [3, 9] |
| --- | --- | --- | --- | --- | --- | --- | --- | --- | --- | --- | --- | --- | --- | --- |
| 21.2 min | 117 mL/min/kg | 7 nM | 4.91 L/h/kg | 21.0% | 201 ng·h/mL | 16.2 min | 2.28 L/kg | 81.5 min | 21.3 mL/min/kg | Cc1c(Nc2ncc(Cl)c(NC3CC4CN(C(=O)CC#N)CC4C3)n2)cnn1C (centres unmarked) [Ex. 66, 3-(5-((5-chloro-2-((1,5-dimethyl-1H-pyrazol-4-yl)amino)pyrimidin-4-yl)amino)hexahydrocyclopenta[c]pyrrol-2(1H)-yl)-3-oxopropanenitrile] | – | – | – | – |
| 240 min | 10.3 mL/min/kg | 5 nM | – | – | – | – | – | 244 min | 7.11 mL/min/kg | Cc1cnc(Nc2cnn(C)c2)nc1NC1CC2CN(C(=O)CC#N)CC2C1 (centres unmarked) [Ex. 60, 3-(5-((5-methyl-2-((1-methyl-1H-pyrazol-4-yl)amino)pyrimidin-4-yl)amino)hexahydrocyclopenta[c]pyrrol-2(1H)-yl)-3-oxopropanenitrile] | – | – | – | – |
| 20.6 min | 121 mL/min/kg | 0.5 nM | 4.13 L/h/kg | 26.0% | 244 ng·h/mL | 28.8 min | 1.53 L/kg | 39.3 min | 44.2 mL/min/kg | N#CCC(=O)N1CC2CC(Nc3nc(Nc4cnn(CC5CC5)c4)ncc3Cl)CC2C1 (centres unmarked) [Ex. 46, 3-(5-((5-chloro-2-((1-(cyclopropylmethyl)-1H-pyrazol-4-yl)amino)pyrimidin-4-yl)amino)hexahydrocyclopenta[c]pyrrol-2(1H)-yl)-3-oxopropanenitrile] | – | – | – | – |
| – | – | 1 nM | 1.61 L/h/kg | 36.9% | 648 ng·h/mL | 58.2 min | 1.76 L/kg | – | – | Cc1cnc(Nc2cnn(C)c2)nc1NC1CC2CN(c3ccc(C#N)cn3)CC2C1 (centres unmarked) [Ex. 59, 6-(5-((5-methyl-2-((1-methyl-1H-pyrazol-4-yl)amino)pyrimidin-4-yl)amino)hexahydrocyclopenta[c]pyrrol-2(1H)-yl)nicotinonitrile] | – | – | – | – |

Further lines, the molecule ahead of its results:

| Structure (SMILES) | half-life at 5 μM [1, 4] | CLint scaled at 5 μM ([1]; pH 7.4, Rat liver microsomes) | IC50 (JAK1 (h)) | Clearance (CL) after iv dosing [2] | F [2] | AUC(0-t) [2] | half-life [2] | Vd [2] | half-life at 5 μM [3, 5] | CLint scaled at 5 μM ([3]; pH 7.4, Human liver microsomes) | half-life at 5 μM [1, 6] | CLint scaled at 5 μM [1, 7] | half-life at 5 μM [3, 8] | CLint scaled at 5 μM [3, 9] |
| --- | --- | --- | --- | --- | --- | --- | --- | --- | --- | --- | --- | --- | --- | --- |
| N#CCC(=O)N1CCC2(CCC(Nc3nc(Nc4cnn(CC5CC5)c4)ncc3Cl)CC2)CC1 [Ex. 48, 3-(9-((5-chloro-2-((1-(cyclopropylmethyl)-1H-pyrazol-4-yl)amino)pyrimidin-4-yl)amino)-3-azaspiro[5.5]undecan-3-yl)-3-oxopropanenitrile] | – | – | 0.4 nM | 3.97 L/h/kg | 13.6% | 252 ng·h/mL | 43.8 min | 3.41 L/kg | – | – | 24.3 min | 102 mL/min/kg | 47.6 min | 36.5 mL/min/kg |
| CN(c1nc(Nc2cnn(C)c2)ncc1Cl)C1CC2CN(C(=O)CC#N)CC2C1 (centres unmarked) [Ex. 69, 3-(5-((5-chloro-2-((1-methyl-1H-pyrazol-4-yl)amino)pyrimidin-4-yl)(methyl)amino)hexahydrocyclopenta[c]pyrrol-2(1H)-yl)-3-oxopropanenitrile] | 12.2 min | 204 mL/min/kg | 15 nM | 3.91 L/h/kg | 56.2% | 281 ng·h/mL | 28.2 min | 1.19 L/kg | 95.6 min | 18.2 mL/min/kg | – | – | – | – |
| N#CCC(=O)N1CCC2(CCC(Nc3nc(Nc4cnn(CCO)c4)ncc3Cl)CC2)CC1 [Ex. 50, 3-(9-((5-chloro-2-((1-(2-hydroxyethyl)-1H-pyrazol-4-yl)amino)pyrimidin-4-yl)amino)-3-azaspiro[5.5]undecan-3-yl)-3-oxopropanenitrile] | – | – | 14 nM | 2.59 L/h/kg | 17.3% | 384 ng·h/mL | 59.4 min | 1.93 L/kg | – | – | 308 min | 8.07 mL/min/kg | 537 min | 3.24 mL/min/kg |
| N#CCC(=O)N1CC2CC(Nc3nc(Nc4cnn(CCO)c4)ncc3Cl)CC2C1 (centres unmarked) [Ex. 44, 3-(5-((5-chloro-2-((1-(2-hydroxyethyl)-1H-pyrazol-4-yl)amino)pyrimidin-4-yl)amino)hexahydrocyclopenta[c]pyrrol-2(1H)-yl)-3-oxopropanenitrile] | 398 min | 6.24 mL/min/kg | 57 nM | 2.96 L/h/kg | 12.0% | 343 ng·h/mL | 33 min | 1.09 L/kg | 243 min | 7.15 mL/min/kg | – | – | – | – |
| Cn1cc(Nc2ncc(Cl)c(NC3CN(C(=O)CC#N)CC34CCCC4)n2)cn1 (centres unmarked) [Ex. 18, 3-(4-((5-chloro-2-((1-methyl-1H-pyrazol-4-yl)amino)pyrimidin-4-yl)amino)-2-azaspiro[4.4]nonan-2-yl)-3-oxopropanenitrile] | – | – | 7 nM | 2.75 L/h/kg | 55.9% | 731 ng·h/mL | 136 min | 4.32 L/kg | – | – | – | – | – | – |
